Experimental data taken from patent US20200281209A1, “STABILIZED EMULSIONS” (Suncor Energy Inc., priority 2016, published 2020).

Experiment: Emulsification test after simulated long term storage at 50° C. (Testing Example 6)
Format: physicochemical
Conditions: for re-emulsification compared with composition with no biocide: after storage at 50° C. for 32 and 70 days
Protocol: Where required, solutions were preheated to aid in dissolution of surfactants. Once the various components had been dissolved into solution, final oil-in-water emulsion composition were blended using high shear mixing (Polytron, Brinkmann Instruments). For solutions containing monomeric surfactants, solutions were subjected to high shear mixing for 5 minutes, while solutions containing polymeric surfactants were subjected to high shear mixing for 15 minutes. Once blending was completed, samples were assessed for quality of emulsification and then placed at 50° C. for up to 70 days, with additional assessments occurring at different time points throughout the storage period. Quality of emulsification was assessed using the method described below. Samples were placed at 50° C. to accelerate storage stability testing, as 4 weeks at 50° C. is representative of 2 years at ambient temperature (CIPAC MT 46.3). The following method was used to evaluate the tested emulsions. The method was performed using a 100 mL graduated cylinder and a pipette (capable of measuring at least 1 mL). The oil-in-water emulsion compositions evaluated in this example were tested as follows: • 1. If ready-to-use spray oil solutions were under storage conditions (e.g., storage for two weeks at 54° C.), the solution was shaken to allow the contents to re-emulsify. • 2. A graduated cylinder was filled with 100 mL of an oil-in-water emulsion composition, and the amount was adjusted as necessary using a pipette. The test solution was allowed to sit for 15 minutes to permit the emulsion to break and to let the majority of the foam generated in step 1 (FIG. 1A) to disappear before moving to step 3. […] The foam should be allowed to settle before inverting cylinders. Even with inversion of cylinders (vs. shaking), some foaming can occur (FIG. 1(B)). • 3. A stopper was placed on the graduated cylinder and the graduated cylinder was inverted 10 times. It was important to invert and not shake the cylinder to prevent excess foaming. • 4. […] Rating were based on the following scale (1-10). […] Specifically, FIG. 2 is an example of an oil-in-water emulsion composition with a rating of 10 (best) at five minutes after inversion. The solution is a homogeneous, milky emulsion (left) and lacks an oil layer or creaming on the surface (right). […] The solution is a homogeneous, milky emulsion (left), but with creaming and some oil coalescence on surface (right). Finally, FIG. 4 is an example of an oil-in-water emulsion composition with a rating of 1 (worst) at five minutes after inversion. The solution has a cloudy appearance, lacks a homogeneous, milky emulsion (left), and has a layer of large, coalesced oil deposits at the surface of the solution (right). The figures were used in the examples described herein as a reference only.

[1] = Base oil Group III, Alcohol ethoxylate/alkyl glyceride, 70 days of storage (50° C.), 10 = best, 1 = worst

**Q.** For `O=C([O-])c1ccccc1.[Na+]` [Sodium benzoate, sodium benzoate], which “Emulsion Rating (1-10)” value [1] is on record?
**A.** 6

**Q.** And the “re-emulsification compared with composition with no biocide” value?
**A.** improved re-emulsification

**Q.** With `O=C(O)c1ccccc1` [Benzoic acid, benzoic acid] as the molecule, how does the “Emulsion Rating (1-10)” value (Base oil Group I, Alcohol ethoxylate/alkyl glyceride, 70 days of storage (50° C.)) read?
**A.** 6

**Q.** What about the “Emulsion Rating (1-10)” value (Base oil Group II, Alcohol ethoxylate/alkyl glyceride, 70 days of storage (50° C.)) of the same molecule?
**A.** 7

**Q.** And the “Emulsion Rating (1-10)” value [1]?
**A.** 7

**Q.** And the “Emulsion Rating (1-10)” value (Base oil Group III, Alkyl polysaccharide, 27 days of storage (50° C.))?
**A.** 8

**Q.** What about the “Emulsion Rating (1-10)” value (Base oil Group III, Block copolymer, 27 days of storage (50° C.)) of the same molecule?
**A.** 8

**Q.** And the “Emulsion Rating (1-10)” value (Base oil Group III, Polyoxyethylene amine quarternary/alkyl glyceride, 27 days of storage (50° C.))?
**A.** 4

**Q.** What about the “Emulsion Rating (1-10)” value (Base oil Group III, Random polymeric/Block copolymer, 64 days of storage (50° C.)) of the same molecule?
**A.** 5

**Q.** What about the “Emulsion Rating (1-10)” value (Base oil Group IV, Alcohol ethoxylate/alkyl glyceride, 70 days of storage (50° C.)) of the same molecule?
**A.** 6

**Q.** What about the “re-emulsification compared with composition with no biocide” value of the same molecule?
**A.** improved re-emulsification

**Q.** And the “effect on re-emulsification, single surfactant” value (“effect … single surfactant” for short) (alcohol ethoxylate, amine alkybenzenesulfonate (anionic), polyoxyethylene amine quarternary (cationic) or polyethylene glycol)?
**A.** no impact

**Q.** What about the “effect … single surfactant” value (alkyl glyceride, random polymeric, sorbitan monooleate, sorbitan fatty acid ester, or dodecyl phenol) of the same molecule?
**A.** negatively affected

**Q.** What about the “effect … single surfactant” value (block copolymer or alkyl polysaccharide surfactant) of the same molecule?
**A.** improved re-emulsification

**Q.** What about the “effect on re-emulsification, surfactant pairs” value (shortened to “effect … surfactant pairs”) (dodecyl phenol + alcohol ethoxylate, alcohol ethoxylate + amine alkylbenzenesulfonate (anionic), sorbitan monooleate + polyoxyethylene (20) sorbitan monooleate) of the same molecule?
**A.** no impact

**Q.** What about the “re-emulsification compared with compositions without benzoic acid” value (group I, group II, group III, and group IV (poly-alpha-olefins) base oils) of the same molecule?
**A.** improved re-emulsification

**Q.** And the “effect … surfactant pairs” value (polyethylene glycol monostearate + alkyl glyceride, alkyl polysaccharide + alkyl glyceride)?
**A.** negatively affected

**Q.** And the “effect … surfactant pairs” value (random polymeric + block copolymer (64 days), polyoxyethylene amine quarternary + alkyl glyceride (27 days), alcohol ethoxylate + alkyl glyceride (70 days), 50° C.)?
**A.** improved re-emulsification

**Q.** For `C/C=C/C=C/C(=O)O` [sorbic acid, reference compound], which “re-emulsification compared with composition with no biocide” value is on record?
**A.** comparable or worse emulsification quality

**Q.** Which results are given for `CCCOC(=O)c1ccc(O)cc1` [Propyl paraben, propyl paraben]?
**A.** Emulsion Rating (1-10) [1]: 5; re-emulsification compared with composition with no biocide: improved re-emulsification

**Q.** Which “Emulsion Rating (1-10)” value [1] does the source give for `COC(=O)c1ccc(O)cc1` [Methyl paraben, methyl paraben] here?
**A.** 5

**Q.** What about the “re-emulsification compared with composition with no biocide” value of the same molecule?
**A.** improved re-emulsification
